From PubChem BioAssay (NCI)
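These data come from cells grown in 96-well plates and exposed to compound for 48 hours at five concentrations. At the TGI there is no net growth.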

Tests used:
Experiment in all cases: DTP human tumour cell line panel, 48 h
[1] = tested on: 786-0 renal
[2] = tested on: A498 renal
[3] = tested on: A549 NSCLC
[4] = tested on: ACHN renal
[5] = tested on: BT-549 breast
[6] = tested on: CAKI-1 renal
[7] = tested on: CCRF-CEM leukemia
[8] = tested on: EKVX NSCLC
[9] = tested on: HCC-2998 colon
[10] = tested on: HCT-116 colon
[11] = tested on: HCT-15 colon
[12] = tested on: HL-60(TB) leukemia
[13] = tested on: HOP-62 NSCLC
[14] = tested on: HOP-92 NSCLC
[15] = tested on: HS 578T breast
[16] = tested on: HT29 colon
[17] = tested on: IGROV1 ovarian
[18] = tested on: KM12 colon
[19] = tested on: LOX IMVI melanoma
[20] = tested on: M14 melanoma
[21] = tested on: MALME-3M melanoma
[22] = tested on: MCF7 breast
[23] = tested on: MDA-MB-231 breast
[24] = tested on: MDA-MB-435
[25] = tested on: MDA-N
[26] = tested on: NCI-H226 lung
[27] = tested on: NCI-H23 lung
[28] = tested on: NCI-H460 lung
[29] = tested on: NCI-H522 lung
[30] = tested on: NCI/ADR-RES ovarian
[31] = tested on: OVCAR-3 ovarian
[32] = tested on: OVCAR-4 ovarian
[33] = tested on: OVCAR-5 ovarian
[34] = tested on: OVCAR-8 ovarian
[35] = tested on: PC-3 prostate
[36] = tested on: RPMI-8226 leukemia
[37] = tested on: RXF 393 renal
[38] = tested on: SF-268 CNS
[39] = tested on: SF-295 CNS
[40] = tested on: SF-539 CNS
[41] = tested on: SK-MEL-2 melanoma
[42] = tested on: SK-MEL-28 melanoma
[43] = tested on: SK-MEL-5 melanoma
[44] = tested on: SK-OV-3 ovarian
[45] = tested on: SN12C renal
[46] = tested on: SNB-19 CNS
[47] = tested on: SNB-75 CNS
[48] = tested on: SW-620 colon
[49] = tested on: T-47D breast
[50] = tested on: TK-10 renal
[51] = tested on: U251 CNS
[52] = tested on: UACC-257 melanoma
[53] = tested on: UACC-62 melanoma
[54] = tested on: UO-31 renal
[55] = tested on: COLO 205 colon
[56] = tested on: DU-145 prostate
[57] = tested on: K-562 leukemia
[58] = tested on: MOLT-4 leukemia

SMILES: COC(=O)/C(=N\NC(=S)NN)C(C(=O)OC)C(=O)C(=O)Nc1cccc(C(F)(F)F)c1 (stereo not drawn)
- TGI [1]: > 100 µM
- TGI [2]: > 100 µM
- TGI [3]: > 100 µM
- TGI [4]: > 100 µM
- TGI [5]: > 100 µM
- TGI [6]: > 100 µM
- TGI [7]: > 100 µM
- TGI [8]: > 100 µM
- TGI [9]: > 100 µM
- TGI [10]: > 100 µM
- TGI [11]: > 100 µM
- TGI [12]: > 100 µM
- TGI [13]: > 100 µM
- TGI [14]: > 100 µM
- TGI [15]: > 100 µM
- TGI [16]: > 100 µM
- TGI [17]: > 100 µM
- TGI [18]: > 100 µM
- TGI [19]: > 100 µM
- TGI [20]: > 100 µM
- TGI [21]: > 100 µM
- TGI [22]: > 100 µM
- TGI [23]: > 100 µM
- TGI [24]: > 100 µM
- TGI [25]: > 100 µM
- TGI [26]: > 100 µM
- TGI [27]: > 100 µM
- TGI [28]: > 100 µM
- TGI [29]: > 100 µM
- TGI [30]: > 100 µM
- TGI [31]: > 100 µM
- TGI [32]: > 100 µM
- TGI [33]: > 100 µM
- TGI [34]: > 100 µM
- TGI [35]: > 100 µM
- TGI [36]: > 100 µM
- TGI [37]: > 100 µM
- TGI [38]: > 100 µM
- TGI [39]: > 100 µM
- TGI [40]: > 100 µM
- TGI [41]: > 100 µM
- TGI [42]: > 100 µM
- TGI [43]: > 100 µM
- TGI [44]: > 100 µM
- TGI [45]: > 100 µM
- TGI [46]: > 100 µM
- TGI [47]: > 100 µM
- TGI [48]: > 100 µM
- TGI [49]: > 100 µM
- TGI [50]: > 100 µM
- TGI [51]: > 100 µM
- TGI [52]: > 100 µM
- TGI [53]: > 100 µM
- TGI [54]: > 100 µM

SMILES: COc1cc([C@@H]2c3cc4c(cc3[C@@H](OC3OC5COC(C)OC5C(OC(=O)CN5CCN(C)CC5)C3OC(=O)CN3CCN(C)CC3)C3COC(=O)[C@@H]32)OCO4)cc(OC)c1OC(=O)CN1CCN(C)CC1 (stereo partly drawn)
- TGI [1]: 52.8 µM
- TGI [4]: > 100 µM
- TGI [5]: > 100 µM
- TGI [6]: > 100 µM
- TGI [7]: 46.6 µM
- TGI [55]: > 100 µM
- TGI [56]: > 100 µM
- TGI [8]: > 100 µM
- TGI [9]: > 100 µM
- TGI [10]: > 100 µM
- TGI [11]: > 100 µM
- TGI [12]: 42.6 µM
- TGI [13]: > 100 µM
- TGI [14]: > 100 µM
- TGI [15]: > 100 µM
- TGI [16]: > 100 µM
- TGI [17]: > 100 µM
- TGI [57]: > 100 µM
- TGI [18]: > 100 µM
- TGI [19]: > 100 µM
- TGI [20]: > 100 µM
- TGI [21]: > 100 µM
- TGI [22]: > 100 µM
- TGI [23]: > 100 µM
- TGI [24]: > 100 µM
- TGI [25]: > 100 µM
- TGI [58]: 42.1 µM
- TGI [26]: > 100 µM
- TGI [27]: > 100 µM
- TGI [28]: > 100 µM
- TGI [29]: > 100 µM
- TGI [30]: > 100 µM
- TGI [31]: > 100 µM
- TGI [32]: > 100 µM
- TGI [33]: > 100 µM
- TGI [34]: > 100 µM
- TGI [35]: > 100 µM
- TGI [37]: > 100 µM
- TGI [38]: > 100 µM
- TGI [39]: > 100 µM
- TGI [40]: 73.4 µM
- TGI [41]: > 100 µM
- TGI [43]: > 100 µM
- TGI [44]: > 100 µM
- TGI [45]: > 100 µM
- TGI [46]: > 100 µM
- TGI [47]: 84.9 µM
- TGI [48]: > 100 µM
- TGI [49]: > 100 µM
- TGI [50]: > 100 µM
- TGI [51]: > 100 µM
- TGI [52]: > 100 µM
- TGI [53]: > 100 µM
- TGI [54]: > 100 µM
